# Test results reported in US6743445B2, “Low temperature coatings” (BTG International Limited, priority 1998, dated 2004).
# Where a name gives a salt, the structure may show the parent alone.
# Experiments:
# [1] = Influence of plasticiser type on the MFFT of Aquacoat dispersion; assay type: physicochemical; details: plasticiser added as emulsion
# Method: (§1) Two different methods were used to evaluate the influence of plasticiser type, quantity and incorporation technique on the MFFT on Surelease® EA7100 and Aquacoat® ECD30. The minimum film-forming temperature (MFFT) is the lowest temperature at which the film-forming composition solidifies to form a film.
# (§2) The first was by pouring the dispersions onto glass petri dishes. These dispersions were dried at ambient temperature (15-25° C.) in Class 2 cleanroom environment and inspected visually. They referred to the plasticisation level needed to form films at 20±5° C. The same numerical grading system was used to evaluate the mixed films of examples 2 to 4.
# (§3) The second method determined the specific MFFT for each formulation. A MFFT bar was used. The hot water bath on one end of the MFFT bar was set at 46±1° C. and the cold water bath on the other end was set at 3±1° C. This created a temperature gradient of 32.5±1.0° C. to 12±1.0° C. across the spreading surface. The temperature gradient across the MFFT bar was allowed to equilibrate for at least two hours prior to use. The temperatures were measured at the beginning and at the end of each experiment using a Jenway 3070 digital-display thermometer. The apparatus was levelled using the adjustable support and a spirit level. The plasticised dispersion formulations were spread across the surface. Once spread, the film was allowed to form at room humidity. After the film had dried, the lowest temperature on the bar at which the film was still continuous was taken as the MFFT. If the film became discontinuous in between two temperature sampling points then the higher of the two sampled temperatures was taken to be the MFFT. All experiments were duplicated. The reported MFFT was an average of the four temperatures taken at the beginning and at the end of each duplicate experiment.
# (§4) In the third technique, the required amount of plasticiser, Tween 80™ and the pseudolatex were mixed with a high speed Silverson homogeniser mixer for 3 minutes. The additional plasticiser content of compositions comprising Surelease® has between 0 and 12% by weight of the ethyl cellulose solids. For compositions comprising Aquacoat®, plasticiser contents of between 18 and 30% by weight of the ethyl cellulose solids were investigated. In all cases Tween 80™ was present in an amount of 0.01% by weight of the dispersion. The formulations were left overnight in sealed containers. Any formulations that remained foamy after overnight storage were not investigated further. Otherwise, the formulations were evaluated on the MFFT apparatus. The plasticisers used were dibutyl sebacate, triethyl citrate, triacetin, acetyl tributyl citrate, tributyl citrate, polypropylene glycol, glycerol and polyethylene glycol 400.
# In the final technique, Tween 80, the plasticiser and water were premixed into a crude emulsion prior to addition to ethyl cellulose coating dispersions. A plasticiser emulsion was formed by mixing parts of plasticiser and water with 0.1% of Tween 80™ using a Silverson homogeniser mixer. The freshly mixed plasticiser emulsion was then added to the ethyl cellulose coating dispersion by magnetic stirring for 30 minutes. […] Only Aquacoat® ECD30 formulations were investigated. Aquacoat® ECD30 was plasticised with dibutyl sebacate, triethyl citrate, triacetin, acetyl tributyl citrate, tributyl citrate, polypropylene glycol, glycerol and polyethylene glycol 400. The basic formulations comprise between 18 and 36% of plasticiser by weight of solids in the dispersion and 0.1% w/w Tween 80.
# [2] = Influence of plasticiser type on the MFFT of Surelease dispersion; assay type: physicochemical; details: plasticiser added by high-shear mixing
# Method: as §1, §2, §3, §4
Compound,Lowering of the MFFT of Aquacoat® [1],Lowering of the MFFT of Surelease® [2]
CCCCOC(=O)CCCCCCCCC(=O)OCCCC [dibutyl sebacate],successful in lowering the MFFT,successful in lowering the MFFT
OCC(O)CO [glycerol],unsuccessful,unsuccessful
CCCCOC(=O)CC(O)(CC(=O)OCCCC)C(=O)OCCCC [tributyl citrate],successful in lowering the MFFT,successful in lowering the MFFT
CC(=O)OCC(COC(C)=O)OC(C)=O [triacetin],lowering the MFFT,
CCCCOC(=O)CC(CC(=O)OCCCC)(OC(C)=O)C(=O)OCCCC [acetyl tributyl citrate],successful in lowering the MFFT,successful in lowering the MFFT
CCOC(=O)CC(O)(CC(=O)OCC)C(=O)OCC [triethyl citrate],lowering the MFFT,
